Target: TRMT6/TRMT61A complex (Homo sapiens, UniProt Q96FX7+Q9UJA5)
Experiment: screen for block of TRMT6/TRMT61A interaction in vitro; m1A by LC-MS/MS in treated PLC/PRF/[…] cells
Type: cell-based
Conditions: blocks subunit interaction (method not described); m1A read in cells treated at the proliferation IC50

TRMT6/TRMT61A complex, sequence (Q96FX7 2-289): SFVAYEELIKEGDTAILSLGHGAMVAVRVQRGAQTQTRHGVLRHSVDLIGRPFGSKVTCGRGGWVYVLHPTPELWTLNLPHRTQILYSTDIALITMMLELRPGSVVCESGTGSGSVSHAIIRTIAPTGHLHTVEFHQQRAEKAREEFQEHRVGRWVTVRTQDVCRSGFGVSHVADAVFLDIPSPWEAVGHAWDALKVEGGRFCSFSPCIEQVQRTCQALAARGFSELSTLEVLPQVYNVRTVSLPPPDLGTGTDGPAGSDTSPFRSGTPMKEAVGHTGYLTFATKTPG
TRMT6/TRMT61A complex, sequence (Q9UJA5 whole entry): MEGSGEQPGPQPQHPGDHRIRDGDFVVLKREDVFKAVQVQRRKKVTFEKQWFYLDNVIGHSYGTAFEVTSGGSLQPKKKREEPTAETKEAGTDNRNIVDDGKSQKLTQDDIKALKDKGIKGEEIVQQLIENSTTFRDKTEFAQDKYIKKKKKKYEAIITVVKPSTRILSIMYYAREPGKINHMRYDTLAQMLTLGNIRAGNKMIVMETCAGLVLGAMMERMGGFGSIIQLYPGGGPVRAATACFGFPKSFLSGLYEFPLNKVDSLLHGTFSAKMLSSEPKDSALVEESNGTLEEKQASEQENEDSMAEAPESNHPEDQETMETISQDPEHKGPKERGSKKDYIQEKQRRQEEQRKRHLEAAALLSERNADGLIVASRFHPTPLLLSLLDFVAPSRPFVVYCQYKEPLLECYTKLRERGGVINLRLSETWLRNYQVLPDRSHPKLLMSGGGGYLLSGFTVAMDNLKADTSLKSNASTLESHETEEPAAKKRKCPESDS

## CN(C)C(=S)SSC(=S)N(C)C [thiram]
  screen for block of TRMT6/TRMT61A interaction in vitro; m1A by LC-MS/MS in treat: thiram acts as an efficient inhibitor against TRMT6/TRMT61A complex

Reference: publication PMC8563902, “N^1-methyladenosine methylation in tRNA drives liver tumourigenesis by regulating cholesterol metabolism” (Nature Communications, 2021)
